In paper PMC12064818, “A general assay platform to study protein pharmacology using ligand-dependent structural dynamics” (Nature Communications, 2025):

What follows are compounds tested against T1, FLuc-C-HiBiT (Photinus pyralis, UniProt P08659) (assay: biochemical). Settings: enzyme activity, 10 uM ATP; read-out: IC50 or SDR50 (mM) / FLuc E.
T1 construct: firefly luciferase with C-terminal HiBiT tag, E. coli expressed
Description: The enzyme activity of FLuc-N-HiBiT, FLuc-C-HiBiT, and FLuc-C-NLuc was measured similar to P. pyralis firefly luciferase (FLuc) as previously described. […] Compounds and controls were added to each plate as described in Supplementary Data 8 with a Hornet pintool system (Wako Automation). Compounds were incubated with respective enzymes for 30–60 min at room temperature protected from light and covered by solid metal lid to prevent evaporation. […] Luciferin was incubated with FLuc enzyme for 5 min before FLuc activity was then measured on a ViewLux CCD imager (PerkinElmer), with exposure times up to ten seconds with medium to high gain settings. Data were normalized to average no enzyme control as 100% enzyme inhibition and average DMSO neutral control. See Supplementary Table 4 for additional details. As a proof-of-concept target, we appended the sensor protein or corresponding α-peptide to either the N- or C-terminus of the target protein firefly luciferase (FLuc), an ATP cofactor-dependent monooxygenase (Supplementary Fig. 1a) having a broad, well-characterized and accessible ligand pharmacology. For initial characterization of the SDR concept, either NLuc or the 11 amino acid HiBiT tag (α-peptide) and complementary 18 kDa LgBiT subunit (ω-fragment), which self-assemble to reconstitute functional NLuc enzyme[24] were tested. In contrast to the ATP-dependent bioluminescent FLuc enzyme, NLuc generates a bright bioluminescence in an ATP-independent manner from the direct oxidation of furimazine (Supplementary Fig. 1b). […] Next, FLuc-C-NLuc, FLuc-N-HiBiT or FLuc-C-HiBiT were assayed with the same inhibitor in an SDR assay format by monitoring bioluminescence from NLuc or its reconstitution by α-complementation with LgBiT. Measurements of NLuc activity were made either in the absence or presence of the FLuc ATP cofactor, as NLuc bioluminescence is ATP-independent.

T1 sequence (P08659 whole entry, looked up): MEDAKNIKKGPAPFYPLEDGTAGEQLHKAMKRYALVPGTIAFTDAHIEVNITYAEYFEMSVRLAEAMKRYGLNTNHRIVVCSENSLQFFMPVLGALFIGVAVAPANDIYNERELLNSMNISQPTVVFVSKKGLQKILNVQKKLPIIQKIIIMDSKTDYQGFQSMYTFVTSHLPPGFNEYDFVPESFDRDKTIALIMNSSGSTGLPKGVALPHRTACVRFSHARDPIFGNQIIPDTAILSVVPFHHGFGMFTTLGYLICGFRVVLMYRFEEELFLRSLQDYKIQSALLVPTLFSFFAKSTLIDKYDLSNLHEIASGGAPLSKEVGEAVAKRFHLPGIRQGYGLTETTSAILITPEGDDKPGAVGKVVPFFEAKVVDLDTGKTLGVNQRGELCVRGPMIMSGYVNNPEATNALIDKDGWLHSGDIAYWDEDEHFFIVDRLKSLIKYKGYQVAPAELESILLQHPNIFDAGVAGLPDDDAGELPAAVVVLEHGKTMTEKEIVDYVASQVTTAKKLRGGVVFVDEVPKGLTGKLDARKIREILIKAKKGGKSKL

| Structure (SMILES) | IC50 |
| --- | --- |
| COc1ccc(CN(C(=O)c2cc3ccccc3oc2=O)C2CC[S+](=O)([O-])C2)cc1OC (stereo not drawn) [NCGC00100996-01] | > 0.03 mM |
| COCCNc1oc(-c2ccc(OC)cc2)nc1C#N [NCGC00101301-01] | 0.0124 mM |
| COc1ccc(C(=O)Nc2ccc(-c3nc4ccccc4s3)c(Cl)c2)cc1Cl [NCGC00102002-01] | > 0.03 mM |
| COc1ccc(-c2nc3ccccc3s2)cc1NC(=O)c1ccccc1OC [NCGC00102097-01] | 0.0111 mM |
| COc1ccc(-c2nc3ccccc3s2)cc1NC(=O)c1cc(OC)c(OC)c(OC)c1 [NCGC00102099-01] | 0.00157 mM |
| Clc1ccccc1Cc1cn2cc(-c3ccccc3)nc2s1 [NCGC00102100-01] | 0.000442 mM |
| Fc1ccc(Cc2cn3cc(-c4ccccc4)nc3s2)cc1 [NCGC00102102-01] | 0.000442 mM |
| COc1ccc(-c2nc3ccccc3s2)cc1NC(=O)c1cc2ccccc2o1 [NCGC00102103-01] | > 0.03 mM |
| Clc1ccc(-c2cn3cc(Cc4ccccc4)sc3n2)cc1 [NCGC00102104-01] | 0.000785 mM |
| Fc1ccccc1Cc1cn2cc(-c3ccc(Cl)cc3)nc2s1 [NCGC00102106-01] | 0.00157 mM |
| Fc1ccc(-c2cn3cc(Cc4ccccc4)sc3n2)cc1 [NCGC00102110-01] | 0.000279 mM |
| Fc1ccc(-c2cn3cc(Cc4ccccc4Cl)sc3n2)cc1 [NCGC00102130-01] | 0.000989 mM |
| Brc1ccc(-c2cn3cc(Cc4ccccc4)sc3n2)cc1 [NCGC00102136-01] | 0.000881 mM |
| COc1ccc(-c2noc(-c3ccc(C)cc3Cl)n2)cc1OC [NCGC00102273-01] | 0.00124 mM |
| COc1cc(OC)cc(C(=O)Nc2cc(-c3nc4ccccc4s3)ccc2OC)c1 [NCGC00102359-01] | > 0.03 mM |
| COc1ccc(-c2nc3ccccc3s2)cc1NC(=O)c1cccc([N+](=O)[O-])c1C [NCGC00102361-01] | 0.00624 mM |
| Cc1cc(-c2nc3ccccc3s2)ccc1NC(=O)c1cc(Cl)ccc1Cl [NCGC00102363-01] | > 0.03 mM |
| CCCCOc1ccc(C(=O)Nc2ccc(-c3nc4ccccc4s3)cc2C)cc1 [NCGC00102367-01] | > 0.03 mM |
| Cc1ccc2nc(-c3cccc(NC(=O)CSc4ccc(Cl)cc4)c3)oc2c1 [NCGC00102431-01] | 0.00351 mM |
| COc1ccc(C(=O)Nc2cc(C(C)C)c(O)c([S+](=O)([O-])c3ccc(Cl)cc3)c2C)cc1 [NCGC00102536-01] | 0.0124 mM |
| O=C(Nc1ccccc1-c1nc2ccccc2s1)c1ccc(F)cc1 [NCGC00102555-01] | > 0.03 mM |
| COc1cccc2cc(C(=O)Nc3ccc(CC(=O)O)cc3)c(=O)oc12 [NCGC00102789-01] | 0.00313 mM |

| Structure (SMILES) | IC50 |
| --- | --- |
| Nc1nn(-c2ccccc2)nc1C(=O)OCc1ccccc1 [NCGC00102837-01] | > 0.03 mM |
| COc1ccc(Br)cc1C(=O)Nc1nc2ccc(F)cc2s1 [NCGC00102907-01] | > 0.03 mM |
| CN1CCc2nc3sc(C(=O)Nc4cccc(C#N)c4)c(N)c3cc2C1 [NCGC00103003-01] | > 0.03 mM |
| COc1ccc(C(=O)Nc2cc(-c3nc4ccccc4s3)ccc2OC)cc1 [NCGC00103028-01] | 0.00989 mM |
| COc1ccc(-c2nc3ccccc3s2)cc1NC(=O)COc1ccc(C)cc1 [NCGC00103030-01] | > 0.03 mM |
| COc1ccc(-c2nc3ccccc3s2)cc1NC(=O)c1ccccc1F [NCGC00103034-01] | > 0.03 mM |
| COc1ccc(-c2nc3ccccc3s2)cc1NC(=O)COc1ccccc1C [NCGC00103036-01] | > 0.03 mM |
| COc1ccc(-c2nc3ccccc3s2)cc1NC(=O)c1ccc(C#N)cc1F [NCGC00103038-01] | > 0.03 mM |
| CCOc1ccc(C(=O)Nc2cc(-c3nc4ccccc4s3)ccc2OC)cc1 [NCGC00103040-01] | > 0.03 mM |
| CCCOc1ccccc1C(=O)Nc1ccc(-c2nc3ccc(C)cc3s2)cc1 [NCGC00103054-01] | 0.00624 mM |
| N#Cc1ccc(C(=O)Nc2ccccc2-c2nc3ccccc3s2)c(F)c1 [NCGC00103058-01] | > 0.03 mM |
| Cc1ccc(C(=O)Nc2ccc(-c3nc4ccccc4s3)cc2C)cc1C [NCGC00103062-01] | > 0.03 mM |
| COc1ccc(-c2nnc(SC(C)C(=O)O)o2)cc1 (stereo not drawn) [NCGC00103120-01] | 0.014 mM |
| O=C(O)CCSc1nnc(-c2ccc(Cl)cc2Cl)o1 [NCGC00103142-01] | 0.000495 mM |
| Cc1ccc2oc(-c3ccc(C)c(NC(=O)/C=C/c4ccc(Cl)cc4)c3)nc2c1 [NCGC00103154-01] | 0.0111 mM |
| Cc1ccc(-c2nnc(SCc3ccccc3C)o2)cc1 [NCGC00103155-01] | 0.0111 mM |
| Cc1ccc(-c2nnc(SCc3ccccc3C#N)o2)cc1 [NCGC00103157-01] | 0.00221 mM |
| CCc1ccc2oc(-c3ccc(C)c(NC(=O)c4ccc(C#N)cc4F)c3)nc2c1 [NCGC00103160-01] | > 0.03 mM |
| COc1ccc(-n2nc3ccc(NC(=O)c4c(OC)cccc4OC)cc3n2)cc1 [NCGC00103168-01] | > 0.03 mM |
| Cc1ccc(C(=O)Nc2cccc3cccnc23)cc1Cl [NCGC00103195-01] | > 0.03 mM |
| CCC(=O)Nc1cc(-c2nc3ccccc3s2)c(Cl)cc1Cl [NCGC00103217-01] | > 0.03 mM |
| COc1ccc(-c2nc3ccccc3o2)cc1NC(=O)c1cccnc1 [NCGC00103240-01] | 0.0124 mM |

Further lines, results first:

| IC50 | Structure (SMILES) |
| --- | --- |
| 0.0124 mM | Cc1ccc(C(=O)COC(=O)c2cc(-c3cccs3)nc3ccccc23)cc1 [NCGC00100788-01] |
| 0.0124 mM | CCCc1ccc(OCc2ccc(C(=O)Nc3ccccc3C(=O)OC)o2)cc1 [NCGC00101032-01] |
| > 0.03 mM | CC(C)c1ccc(C(=O)Nc2ccc(-c3nc4ccccc4s3)c(Cl)c2)cc1 [NCGC00101984-01] |
| > 0.03 mM | COc1c(C)cccc1C(=O)Nc1ccc(-c2nc3ccccc3s2)c(Cl)c1 [NCGC00102004-01] |
| 0.0157 mM | CCCOc1cccc(C(=O)Nc2ccc(-c3nc4ccccc4s3)c(Cl)c2)c1 [NCGC00102006-02] |
| 0.000442 mM | Cc1ccc(Cc2cn3cc(-c4ccccc4)nc3s2)cc1 [NCGC00102098-01] |
| > 0.03 mM | COc1ccc(-c2nc3ccccc3s2)cc1NC(=O)COc1cccc(C)c1 [NCGC00102101-01] |
| 0.00351 mM | Fc1ccc(Cc2cn3cc(-c4ccc(Cl)cc4)nc3s2)cc1 [NCGC00102108-01] |
| 0.000881 mM | Fc1ccc(Cc2cn3cc(-c4ccc(F)cc4)nc3s2)cc1 [NCGC00102134-01] |
| > 0.03 mM | COc1ccc(C(=O)Nc2ccc(-c3nc4ccccc4s3)cc2C)cc1Cl [NCGC00102365-01] |
| > 0.03 mM | O=C(/C=C/c1ccccc1)Nc1cc(-c2nc3cc(Cl)ccc3o2)ccc1Cl [NCGC00102391-01] |
| 0.00989 mM | Cc1cc2nc(-c3cccc(NC(=O)COc4ccc(C(C)C)cc4)c3)oc2cc1C [NCGC00102495-01] |
| > 0.03 mM | COc1cccc(C(=O)Nc2ccccc2-c2nc3ccccc3s2)c1 [NCGC00102557-01] |
| > 0.03 mM | COc1ccc(C(=O)Nc2cc([S+](=O)([O-])c3ccc(Cl)cc3)c(O)c(C)c2C)cc1 [NCGC00102574-01] |
| > 0.03 mM | COc1ccc(C(=O)Nc2ccccc2-c2nc3ccccc3s2)cc1OC [NCGC00102625-01] |
| > 0.03 mM | COc1ccc(-c2nc3ccccc3s2)cc1NC(=O)c1ccc(F)cc1 [NCGC00103032-01] |
| > 0.03 mM | COc1cc(OC)cc(C(=O)Nc2ccc(-c3nc4ccccc4s3)cc2C)c1 [NCGC00103060-01] |
| 0.00495 mM | Cc1cccc(-c2nnc(SCCC(=O)O)o2)c1 [NCGC00103138-01] |
| 0.00989 mM | CC(C)c1ccc(C(=O)Nc2cccc3cccnc23)cc1 [NCGC00103193-01] |
